Reference: PMC9313475, “Green Tea Catechins, (−)‐Catechin Gallate, and (−)‐Gallocatechin Gallate are Potent Inhibitors of ABA‐Induced Stomatal Closure” (Advanced Science, 2022)

What was measured:
GORK = molecular target: T1, GORK (Arabidopsis thaliana, UniProt Q94A76); test: two-electrode voltage clamp in Xenopus oocytes expressing the channel, […]; type: cell-based
T1 sequence (Q94A76 1-820): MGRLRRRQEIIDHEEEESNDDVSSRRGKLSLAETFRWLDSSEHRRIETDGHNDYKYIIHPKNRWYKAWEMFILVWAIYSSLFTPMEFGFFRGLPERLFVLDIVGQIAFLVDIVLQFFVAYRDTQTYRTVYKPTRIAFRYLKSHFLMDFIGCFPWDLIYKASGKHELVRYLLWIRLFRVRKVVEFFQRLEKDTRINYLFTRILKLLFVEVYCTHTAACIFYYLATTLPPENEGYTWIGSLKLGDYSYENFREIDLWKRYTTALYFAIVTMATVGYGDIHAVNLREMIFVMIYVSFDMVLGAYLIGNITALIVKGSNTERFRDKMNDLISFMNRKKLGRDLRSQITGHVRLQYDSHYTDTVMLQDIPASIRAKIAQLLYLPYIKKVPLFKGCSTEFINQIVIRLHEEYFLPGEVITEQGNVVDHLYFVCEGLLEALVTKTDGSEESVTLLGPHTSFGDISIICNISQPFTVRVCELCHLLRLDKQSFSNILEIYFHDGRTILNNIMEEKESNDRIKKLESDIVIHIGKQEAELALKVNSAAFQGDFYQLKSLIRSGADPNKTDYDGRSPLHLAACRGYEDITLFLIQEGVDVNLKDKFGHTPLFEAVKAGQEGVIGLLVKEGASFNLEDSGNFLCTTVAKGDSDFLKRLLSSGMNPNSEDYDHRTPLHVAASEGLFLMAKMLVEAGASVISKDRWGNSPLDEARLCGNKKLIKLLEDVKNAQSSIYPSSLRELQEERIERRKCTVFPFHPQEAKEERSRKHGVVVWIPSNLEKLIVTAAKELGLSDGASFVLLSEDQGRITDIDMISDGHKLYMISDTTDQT

KAT2 [1] = molecular target: T2, KAT2 (Arabidopsis thaliana, UniProt Q38849); test: as above; type: cell-based
KAT1 = KAT1 (Arabidopsis thaliana, UniProt Q39128); test: as above; type: cell-based
KAT2 [2] = molecular target: T2, KAT2; test: cell-based; settings: read-out: % inhibition at 0.5 mM

T2 sequence (Q38849 whole entry): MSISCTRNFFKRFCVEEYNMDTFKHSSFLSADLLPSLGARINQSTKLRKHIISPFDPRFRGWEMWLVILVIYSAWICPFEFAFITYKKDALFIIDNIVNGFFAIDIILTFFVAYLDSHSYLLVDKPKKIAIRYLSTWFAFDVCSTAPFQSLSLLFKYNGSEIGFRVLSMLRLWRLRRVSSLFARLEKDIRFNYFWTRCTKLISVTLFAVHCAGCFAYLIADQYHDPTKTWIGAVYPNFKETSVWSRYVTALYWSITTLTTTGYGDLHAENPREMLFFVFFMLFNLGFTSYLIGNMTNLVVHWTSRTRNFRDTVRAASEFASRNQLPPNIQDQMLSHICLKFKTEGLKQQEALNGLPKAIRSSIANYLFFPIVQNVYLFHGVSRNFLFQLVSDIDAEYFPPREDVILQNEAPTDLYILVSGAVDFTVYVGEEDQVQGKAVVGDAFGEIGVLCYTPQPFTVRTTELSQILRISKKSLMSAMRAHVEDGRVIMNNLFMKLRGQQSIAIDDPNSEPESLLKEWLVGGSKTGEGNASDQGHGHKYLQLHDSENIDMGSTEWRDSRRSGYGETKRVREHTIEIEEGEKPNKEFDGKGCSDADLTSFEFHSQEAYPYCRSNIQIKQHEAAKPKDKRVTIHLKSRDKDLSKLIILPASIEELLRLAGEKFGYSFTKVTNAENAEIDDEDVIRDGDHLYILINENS
Chain of KAT1 (Q39128 whole entry): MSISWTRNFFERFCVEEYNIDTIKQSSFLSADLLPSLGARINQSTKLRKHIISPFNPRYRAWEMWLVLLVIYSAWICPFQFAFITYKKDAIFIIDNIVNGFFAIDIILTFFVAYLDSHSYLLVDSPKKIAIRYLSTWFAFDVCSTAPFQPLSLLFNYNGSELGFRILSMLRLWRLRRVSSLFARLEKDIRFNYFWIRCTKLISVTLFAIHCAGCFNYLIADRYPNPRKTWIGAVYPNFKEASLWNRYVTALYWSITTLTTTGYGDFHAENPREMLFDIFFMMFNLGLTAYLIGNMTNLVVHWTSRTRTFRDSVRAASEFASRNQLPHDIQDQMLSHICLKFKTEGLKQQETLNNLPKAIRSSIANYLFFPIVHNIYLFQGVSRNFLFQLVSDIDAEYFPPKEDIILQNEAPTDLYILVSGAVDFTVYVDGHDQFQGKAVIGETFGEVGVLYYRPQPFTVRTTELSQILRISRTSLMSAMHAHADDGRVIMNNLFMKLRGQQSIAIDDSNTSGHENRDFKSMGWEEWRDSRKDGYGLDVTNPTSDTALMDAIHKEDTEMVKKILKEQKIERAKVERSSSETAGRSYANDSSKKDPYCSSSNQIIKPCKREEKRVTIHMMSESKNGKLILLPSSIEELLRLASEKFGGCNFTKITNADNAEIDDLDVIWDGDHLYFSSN

O=C(O[C@@H]1Cc2c(O)cc(O)cc2O[C@H]1c1ccc(O)c(O)c1)c1cc(O)c(O)c(O)c1 [CG, (−)-catechin gallate]
two-electrode voltage clamp in Xenopus oocytes expressing the channel, 500 μM (GORK): GORK was strongly inhibited by CG and GCG, whereas AKT1 and AKT2 were less sensitive to CG and GCG. | two-electrode voltage clamp in Xenopus oocytes expressing the channel, 500 μM (KAT2 [1]): Both CG and GCG inhibited KAT1 and KAT2 (Figure 3A,B). | two-electrode voltage clamp in Xenopus oocytes expressing the channel, 500 μM (KAT1): Both CG and GCG inhibited KAT1 and KAT2 (Figure 3A,B).

O=C(O[C@@H]1Cc2c(O)cc(O)cc2O[C@H]1c1cc(O)c(O)c(O)c1)c1cc(O)c(O)c(O)c1 [GCG, (−)-gallocatechin gallate]
two-electrode voltage clamp in Xenopus oocytes expressing the channel, 500 μM (GORK): GORK was strongly inhibited by CG and GCG, whereas AKT1 and AKT2 were less sensitive to CG and GCG. | two-electrode voltage clamp in Xenopus oocytes expressing the channel, 500 μM (KAT2 [1]): Both CG and GCG inhibited KAT1 and KAT2 (Figure 3A,B). | two-electrode voltage clamp in Xenopus oocytes expressing the channel, 500 μM (KAT1): Both CG and GCG inhibited KAT1 and KAT2 (Figure 3A,B).

CC[N+](CC)(CC)CC [TEA, tetraethylammonium]
inhibition at 500 µM (KAT2 [2]): 14%
